# Activity calls are given as the source filed them.
# Columns and labels:
# cells [1] = type: functional, cell-based
# cells [2] = type: functional, cell-based; remark: listed apart in the source
# [3] = target: Heat shock protein HSP 90-alpha (Homo sapiens, UniProt P07900); type: functional, organism-based
# [4] = target: 72 kDa type IV collagenase (Homo sapiens, UniProt P08253); assay: Dose Response validation of uHTS RPN11 inhibitor hits using a MMP-2 Fluorescence assay.; type: functional
# Prothrombin = Prothrombin (Bos taurus, UniProt P00735); assay: thrombin inhibition, dose response, biochemical, fluorescence polarization, uHTS hits (AID 602369); type: functional
# [5] = target: 26S proteasome non-ATPase regulatory subunit 14 (Homo sapiens, UniProt O00487); assay: inhibition of proteasome subunit RPN11 – biochemical, fluorescence polarization, uHTS hits, confirmation (AID 602368); type: functional
# [6] = Luminescence Cell-Based Dose Confirmation HTS to Identify Activators of 5'UTR Stem-Loop Driven Alpha-Synuclein mRNA Translation in H4 Neuroglioblastoma Cells. [Related pubchem assays: 1829 (Project Summary), 1814 (Primary HTS)]; type: functional
# Cytochrome P450 2D6 = Cytochrome P450 2D6 (Homo sapiens, UniProt P10635);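 also: CYP2D6 member of a cytochrome P450 panel assay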
# [7] = Luminescence Cell-Based Dose Response HTS to Identify Activators of Luciferase Translation or Activity in H4 […] Cells. [Related pubchem assays: 1829 (Project Summary), 1814 (Primary HTS)]; type: functional
# H4 = assay: Luminescence Cell-Based Dose Response HTS to Identify Activators of 5'UTR Stem-Loop Driven Prion Protein mRNA Translation in H4 Neuroglioblastoma Cells. [Related pubchem assays: 1829 (Project Summary), 1814 (Primary HTS)]; type: functional; settings: Homo sapiens
# INS1 = assay: beta cell apoptosis inhibitors, cytokine rescue, dose response, luminescence, retest (AID 449756); type: functional, cell-based; settings: Rattus norvegicus;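 also: cell death triggered by IL-1 beta plus TNF-alpha plus IFN-gamma mixture; protective hits raise ATP signal compared with cytokine alone wells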
# [8] = C. albicans growth with fluconazole, confirmation, fluorescence, retest (AID 2467); type: functional, cell-based
# [9] = NIH-3T3 fibroblast cytotoxicity, dose response, cytotoxicity control, cell-based, fluorescence, Alamar Blue, secondary assay (AID 2327); type: functional;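 also: NIH-3T3 mouse fibroblasts cultured with fluconazole at 8 µg/mL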
# [10] = target: T1, Rac GTPase-activating protein 1 (Homo sapiens, UniProt Q9H0H5); assay: MgcRacGAP GTPase-activating activity inhibitors, confirmation, biochemical, ADP Hunter fluorescence, primary and confirmatory (AID 624330); type: functional
# T1 sequence (Q9H0H5 whole entry): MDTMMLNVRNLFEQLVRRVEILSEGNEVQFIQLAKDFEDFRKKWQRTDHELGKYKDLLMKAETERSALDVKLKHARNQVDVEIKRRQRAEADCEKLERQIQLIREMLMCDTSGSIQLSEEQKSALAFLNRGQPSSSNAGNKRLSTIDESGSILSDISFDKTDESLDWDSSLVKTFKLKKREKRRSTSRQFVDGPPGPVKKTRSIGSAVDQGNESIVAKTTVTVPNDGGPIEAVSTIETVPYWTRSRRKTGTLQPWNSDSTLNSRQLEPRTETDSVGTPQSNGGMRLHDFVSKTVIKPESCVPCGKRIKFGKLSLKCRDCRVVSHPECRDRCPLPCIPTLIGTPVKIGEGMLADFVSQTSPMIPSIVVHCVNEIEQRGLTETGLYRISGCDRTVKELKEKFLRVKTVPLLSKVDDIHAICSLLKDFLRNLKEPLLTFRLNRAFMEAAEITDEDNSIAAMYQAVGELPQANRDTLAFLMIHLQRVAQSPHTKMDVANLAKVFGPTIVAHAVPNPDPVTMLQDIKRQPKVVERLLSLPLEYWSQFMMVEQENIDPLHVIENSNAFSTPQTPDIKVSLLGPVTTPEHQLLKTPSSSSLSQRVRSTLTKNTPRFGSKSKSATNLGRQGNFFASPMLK
# [11] = target: Disintegrin and metalloproteinase domain-containing protein 17 (Homo sapiens, UniProt P78536); assay: ADAM17 protease inhibitors, dose response, counter-screen for ADAM10 exosite inhibitor project, biochemical, quenched FRET substrate (AID 743253)
# [12] = ADAM10 inhibitors, peptide cleavage, dose response, biochemical, QFRET (AID 743254);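 also: ADAM10 enzyme with the DM2 quenched FRET peptide as substrate; EDANS fluorescence gain as the protease cuts the substrate; inhibitor potency against ADAM10 proteolytic activity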
# Cysteine protease ATG4B = target: T2, Cysteine protease ATG4B (Homo sapiens, UniProt Q9Y4P1); type: functional;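 also: Fluorescence-based dose-response confirmation assay measuring inhibition of ATG4B activity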
# T2 sequence (Q9Y4P1 whole entry): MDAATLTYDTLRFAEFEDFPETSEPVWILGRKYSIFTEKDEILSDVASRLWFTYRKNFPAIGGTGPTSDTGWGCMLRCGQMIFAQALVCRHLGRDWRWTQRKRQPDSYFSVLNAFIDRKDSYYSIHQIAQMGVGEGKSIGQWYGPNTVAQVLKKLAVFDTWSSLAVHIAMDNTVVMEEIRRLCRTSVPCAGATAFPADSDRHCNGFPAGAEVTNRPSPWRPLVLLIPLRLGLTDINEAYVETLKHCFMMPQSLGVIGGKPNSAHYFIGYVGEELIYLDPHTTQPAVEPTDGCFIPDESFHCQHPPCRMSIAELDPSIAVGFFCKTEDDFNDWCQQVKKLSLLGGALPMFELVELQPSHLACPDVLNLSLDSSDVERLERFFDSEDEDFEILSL
# Phospholipase A2 = Phospholipase A2 (Homo sapiens, UniProt P04054); type: functional;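 also: confirmatory dose-response counterscreen on phospholipase A2, testing hits that came from an ultra-high-throughput screen for ATG4B inhibitors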
# Aminopeptidase N = target: T3, Aminopeptidase N (Plasmodium falciparum FcB1/Columbia, UniProt O96935); assay: P. falciparum M1AAP inhibitors, biochemical, fluorogenic H-Leu-NHMec substrate, 1536-well (AID 1445); parameters: species or system Plasmodium falciparum 3D7, 3D7
# T3 sequence (O96935 whole entry): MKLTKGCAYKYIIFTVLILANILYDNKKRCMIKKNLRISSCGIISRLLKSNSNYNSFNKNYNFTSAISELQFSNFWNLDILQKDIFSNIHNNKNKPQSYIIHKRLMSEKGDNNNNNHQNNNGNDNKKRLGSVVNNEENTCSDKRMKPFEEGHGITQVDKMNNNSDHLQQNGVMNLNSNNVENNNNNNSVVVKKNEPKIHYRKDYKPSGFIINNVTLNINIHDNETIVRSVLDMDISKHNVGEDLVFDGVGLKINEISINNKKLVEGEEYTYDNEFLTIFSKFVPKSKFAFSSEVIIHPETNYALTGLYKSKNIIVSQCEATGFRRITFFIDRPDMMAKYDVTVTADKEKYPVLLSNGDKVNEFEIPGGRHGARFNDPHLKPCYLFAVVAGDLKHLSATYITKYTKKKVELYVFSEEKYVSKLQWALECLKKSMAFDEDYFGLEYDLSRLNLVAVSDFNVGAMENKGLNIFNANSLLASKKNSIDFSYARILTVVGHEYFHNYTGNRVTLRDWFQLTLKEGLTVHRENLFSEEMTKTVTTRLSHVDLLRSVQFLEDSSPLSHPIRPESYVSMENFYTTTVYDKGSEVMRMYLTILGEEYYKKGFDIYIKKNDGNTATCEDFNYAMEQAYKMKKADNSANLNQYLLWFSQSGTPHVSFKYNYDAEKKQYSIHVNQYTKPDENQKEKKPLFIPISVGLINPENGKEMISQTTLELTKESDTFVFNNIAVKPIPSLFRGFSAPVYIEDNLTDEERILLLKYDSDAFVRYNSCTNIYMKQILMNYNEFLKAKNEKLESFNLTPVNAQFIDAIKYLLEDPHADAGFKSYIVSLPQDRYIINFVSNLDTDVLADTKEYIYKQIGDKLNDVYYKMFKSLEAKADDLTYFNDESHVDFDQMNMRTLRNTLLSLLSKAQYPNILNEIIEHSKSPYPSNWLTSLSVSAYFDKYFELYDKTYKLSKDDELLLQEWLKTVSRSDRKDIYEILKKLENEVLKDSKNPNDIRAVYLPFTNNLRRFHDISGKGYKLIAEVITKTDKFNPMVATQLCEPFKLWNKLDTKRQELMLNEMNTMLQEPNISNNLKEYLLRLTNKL
# Streptococcus = assay: Group A Streptococcus viability loss, dose response, counter-screen for streptokinase expression inhibitor project, luminescence, BacTiterGlo (AID 1915); type: functional, organism-based;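 also: potency for reduction of bacterial viability or growth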
# [13] = tested on: Streptococcus sp. 'group A'; assay: growth inhibition of control SK(-) GAS strain, dose response, counter-screen for streptokinase expression inhibitor project, luminescence, kanamycin, BacTiterGlo, confirmation (AID 1900); type: functional, organism-based
# Streptokinase A = target: T4, Streptokinase A (Streptococcus pyogenes serotype M1, UniProt P10520); assay: S. pyogenes streptokinase expression inhibitors, potency, dose response, plasminogen activation absorbance, OD405 (AID 1914); type: functional, Streptococcus pyogenes M1 GAS;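 also: secreted streptokinase activity via plasminogen activation per viability signal from cell pellet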
# T4 sequence (P10520 whole entry): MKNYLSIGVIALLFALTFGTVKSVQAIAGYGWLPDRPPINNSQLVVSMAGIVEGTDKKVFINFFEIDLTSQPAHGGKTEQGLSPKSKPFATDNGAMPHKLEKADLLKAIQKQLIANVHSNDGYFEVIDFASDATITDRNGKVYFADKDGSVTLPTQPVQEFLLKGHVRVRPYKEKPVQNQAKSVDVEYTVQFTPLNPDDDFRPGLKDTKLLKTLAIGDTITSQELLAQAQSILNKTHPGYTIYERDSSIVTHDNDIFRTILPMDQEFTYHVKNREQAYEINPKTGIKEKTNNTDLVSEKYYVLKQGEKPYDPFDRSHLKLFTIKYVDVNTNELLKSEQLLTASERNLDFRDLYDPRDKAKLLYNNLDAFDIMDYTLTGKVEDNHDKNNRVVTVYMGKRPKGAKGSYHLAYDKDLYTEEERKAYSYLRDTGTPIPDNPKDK
# Sequence of 72 kDa type IV collagenase (P08253 whole entry): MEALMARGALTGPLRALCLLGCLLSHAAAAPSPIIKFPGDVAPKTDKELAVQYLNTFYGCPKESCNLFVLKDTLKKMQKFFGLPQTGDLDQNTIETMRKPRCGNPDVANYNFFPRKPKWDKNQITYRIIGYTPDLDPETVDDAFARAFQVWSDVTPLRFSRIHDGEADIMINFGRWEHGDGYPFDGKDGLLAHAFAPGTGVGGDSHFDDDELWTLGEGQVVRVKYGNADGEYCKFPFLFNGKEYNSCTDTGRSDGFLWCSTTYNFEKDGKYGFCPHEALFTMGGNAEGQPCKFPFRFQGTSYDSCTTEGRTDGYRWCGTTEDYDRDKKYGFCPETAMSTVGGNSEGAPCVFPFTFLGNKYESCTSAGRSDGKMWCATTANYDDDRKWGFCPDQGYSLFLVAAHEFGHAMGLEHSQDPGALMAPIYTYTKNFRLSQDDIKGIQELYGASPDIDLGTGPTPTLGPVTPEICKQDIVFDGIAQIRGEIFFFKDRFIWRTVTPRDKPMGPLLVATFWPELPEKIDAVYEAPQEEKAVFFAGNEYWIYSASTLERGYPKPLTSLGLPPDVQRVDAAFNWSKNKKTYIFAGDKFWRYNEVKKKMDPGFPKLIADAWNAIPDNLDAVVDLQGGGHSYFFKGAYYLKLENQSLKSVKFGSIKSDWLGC
# Sequence of 26S proteasome non-ATPase regulatory subunit 14 (O00487 whole entry): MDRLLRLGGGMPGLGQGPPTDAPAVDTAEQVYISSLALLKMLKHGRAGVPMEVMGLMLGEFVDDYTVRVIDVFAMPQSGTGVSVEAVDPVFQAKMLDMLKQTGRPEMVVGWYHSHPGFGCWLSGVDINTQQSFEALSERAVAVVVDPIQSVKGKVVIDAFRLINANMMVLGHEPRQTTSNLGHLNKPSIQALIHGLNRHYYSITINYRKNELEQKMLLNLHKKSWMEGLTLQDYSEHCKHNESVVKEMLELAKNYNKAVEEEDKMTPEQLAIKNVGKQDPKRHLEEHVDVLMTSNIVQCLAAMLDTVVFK
# Sequence of Disintegrin and metalloproteinase domain-containing protein 17 (P78536 whole entry, the tested form may be a part): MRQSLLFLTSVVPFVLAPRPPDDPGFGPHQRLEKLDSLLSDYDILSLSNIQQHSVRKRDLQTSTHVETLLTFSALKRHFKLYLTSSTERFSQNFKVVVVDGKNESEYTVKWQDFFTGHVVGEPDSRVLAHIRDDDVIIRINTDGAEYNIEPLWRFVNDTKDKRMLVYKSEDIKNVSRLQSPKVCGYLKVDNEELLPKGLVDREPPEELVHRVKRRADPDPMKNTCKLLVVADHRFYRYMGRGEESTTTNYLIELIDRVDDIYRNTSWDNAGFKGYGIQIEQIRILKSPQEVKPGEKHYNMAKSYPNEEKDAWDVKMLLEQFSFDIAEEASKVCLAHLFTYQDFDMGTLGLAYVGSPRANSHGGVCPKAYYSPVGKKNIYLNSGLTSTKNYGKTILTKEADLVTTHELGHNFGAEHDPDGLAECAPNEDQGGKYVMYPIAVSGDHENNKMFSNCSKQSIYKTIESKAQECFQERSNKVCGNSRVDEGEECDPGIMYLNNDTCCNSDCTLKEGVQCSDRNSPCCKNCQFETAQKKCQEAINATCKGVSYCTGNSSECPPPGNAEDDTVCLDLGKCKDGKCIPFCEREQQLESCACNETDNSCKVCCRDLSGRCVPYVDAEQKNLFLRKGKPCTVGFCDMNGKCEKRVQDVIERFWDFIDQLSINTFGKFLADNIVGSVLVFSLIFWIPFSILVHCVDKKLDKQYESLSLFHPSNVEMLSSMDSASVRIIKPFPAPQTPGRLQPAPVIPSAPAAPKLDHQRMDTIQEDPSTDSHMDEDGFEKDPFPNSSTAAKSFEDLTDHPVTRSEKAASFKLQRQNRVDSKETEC
# Sequence of Phospholipase A2 (P04054 whole entry): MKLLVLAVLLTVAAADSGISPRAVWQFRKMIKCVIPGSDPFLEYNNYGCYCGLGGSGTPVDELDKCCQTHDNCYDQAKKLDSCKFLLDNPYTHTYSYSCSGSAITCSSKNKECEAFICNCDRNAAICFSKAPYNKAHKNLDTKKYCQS
# Sequence of Cytochrome P450 2D6 (P10635 whole entry): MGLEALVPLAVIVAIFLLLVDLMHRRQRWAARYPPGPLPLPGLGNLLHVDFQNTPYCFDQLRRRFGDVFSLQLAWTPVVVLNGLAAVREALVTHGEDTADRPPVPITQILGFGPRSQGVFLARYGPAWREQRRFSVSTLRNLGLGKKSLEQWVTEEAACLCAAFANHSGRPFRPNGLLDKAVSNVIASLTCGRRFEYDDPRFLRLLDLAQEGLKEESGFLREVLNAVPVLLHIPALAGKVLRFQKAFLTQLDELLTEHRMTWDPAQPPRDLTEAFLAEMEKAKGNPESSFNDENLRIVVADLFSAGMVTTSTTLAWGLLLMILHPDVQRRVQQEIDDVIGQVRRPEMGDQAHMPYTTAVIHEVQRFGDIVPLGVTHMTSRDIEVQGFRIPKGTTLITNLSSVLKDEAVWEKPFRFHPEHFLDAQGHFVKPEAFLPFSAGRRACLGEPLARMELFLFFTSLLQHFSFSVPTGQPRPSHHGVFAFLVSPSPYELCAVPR
structure (smiles),measurement,setting,value
CCOC(=O)c1ccc(N2CN(CCc3ccccc3)CN=C2S)cc1,EC50,cells [1],> 29.9 µM (inactive)
same,IC50,cells [2],> 29.9 µM (inactive)
C=CCn1c(C)cc(C(=O)CSc2nnc(NCc3ccccc3)s2)c1C,AC50,[3],4.03 µM (active)
N=C1/C(=C\c2ccc(-c3cccc(Cl)c3)o2)C(=O)N=C2SC=C(c3ccccc3)N12,IC50,[4],> 100 µM (inactive)
same,IC50,Prothrombin,52.9 µM (active)
same,IC50,[5],27.8 µM (active)
NC(=Nc1cccc2ccccc12)Nc1nc(O)c2c(n1)CCC2,EC50,[6],> 120 µM (not active)
same,AC50,Cytochrome P450 2D6,11.2 µM (inconclusive)
same,IC50,[4],> 100 µM (inactive)
same,EC50,[7],> 120 µM (not active)
same,IC50,Prothrombin,> 100 µM (inactive)
same,IC50,[5],24.3 µM (active)
same,EC50,H4,> 120 µM (not active)
COc1ccc(C(=O)NC(=S)NNC(=O)c2cnccn2)cc1,AC50,[3],2.71 µM (active)
same,AC50,INS1,933 nM (active)
same,EC50,[8],2.02 µM (active)
same,EC50,[9],9.88 µM (active)
COc1cc(/C=C2/C(=O)NN(c3ccc(Cl)cc3)C2=O)cc(Br)c1O,IC50,[10],103 µM (active)
same,IC50,[4],54.8 µM (active)
same,IC50,Prothrombin,60.6 µM (active)
same,IC50,[5],14.5 µM (active)
CCN(CC)c1ccc(/C=N/NC(=O)c2cccc(S(=O)(=O)Nc3ccccc3OC)c2)cc1,IC50,[4],> 100 µM (inactive)
same,IC50,Prothrombin,33.2 µM (active)
same,IC50,[5],26.3 µM (active)
C#CCN(C[C@@H]1[C@@H](OC(=O)NCc2ccc(OC)c(OC)c2)[C@@H](OC(=O)NCc2ccc(OC)c(OC)c2)Cn2c(=O)n(CCCCCC)c(=O)n21)S(=O)(=O)c1ccc(C)cc1,IC50,[11],> 69.5 µM (inactive)
same,IC50,[12],> 69.5 µM (inactive)
Cc1cccc(C)c1OCc1nc2ccccc2c(=O)n1/N=C/c1ccc(OCC(=O)O)cc1,IC50,Cysteine protease ATG4B,14.7 µM (active)
same,IC50,Phospholipase A2,9.81 µM (active)
same,IC50,Aminopeptidase N,< 1 µM (active)
Oc1cccc(/C=N/N(Cc2ccccc2)c2ccccc2)c1,EC50,Streptococcus,7.85 µM (active)
same,IC50,[11],> 69.5 µM (inactive)
same,IC50,[12],> 7.73 µM (active)
same,EC50,[13],6.42 µM (active)
same,EC50,Streptokinase A,> 150 µM (not active)
